Measurements as given in ChEMBL document CHEMBL1123922.

How the values were obtained:
[1] = molecular target: Prostaglandin G/H synthase 1 (Ovis aries) (UniProt P05979); experiment: Inhibition of PGH synthase by measuring oxygen consumption with a Clark oxygen electrode at 100 uM; design: scale not given: the % may be the effect or the level left
[2] = molecular target: Prostaglandin G/H synthase 1 (Ovis aries) (UniProt P05979); experiment: Inhibition of PGH synthase was determined by measuring oxygen consumption with a Clark oxygen electrode at 25 uM; design: scale not given: the % may be the effect or the level left

Prostaglandin G/H synthase 1 (Ovis aries), sequence (P05979 whole entry, looked up): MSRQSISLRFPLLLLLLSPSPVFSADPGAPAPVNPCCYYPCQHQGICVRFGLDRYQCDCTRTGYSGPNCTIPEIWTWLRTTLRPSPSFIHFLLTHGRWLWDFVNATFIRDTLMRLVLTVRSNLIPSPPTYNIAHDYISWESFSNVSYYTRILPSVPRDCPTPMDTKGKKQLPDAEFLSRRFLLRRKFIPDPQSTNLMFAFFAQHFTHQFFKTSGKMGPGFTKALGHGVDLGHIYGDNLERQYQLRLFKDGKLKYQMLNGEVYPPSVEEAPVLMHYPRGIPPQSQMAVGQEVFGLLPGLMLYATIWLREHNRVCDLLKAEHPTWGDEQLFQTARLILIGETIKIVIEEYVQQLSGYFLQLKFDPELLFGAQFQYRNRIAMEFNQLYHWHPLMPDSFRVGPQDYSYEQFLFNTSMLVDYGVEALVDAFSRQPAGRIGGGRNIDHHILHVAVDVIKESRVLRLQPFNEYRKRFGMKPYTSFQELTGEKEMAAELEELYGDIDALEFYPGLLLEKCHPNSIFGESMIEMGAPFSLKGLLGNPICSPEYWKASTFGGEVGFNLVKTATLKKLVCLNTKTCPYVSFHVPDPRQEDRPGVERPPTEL

Row | Control [1] [%] | Control [2] [%] | Structure (SMILES)
1 | 90 | – | O=C(CCl)NCCC1C(=O)N(c2ccccc2)N(c2ccccc2)C1=O
2 | 10 | 35 | O=C1C(CC#CCCl)C(=O)N(c2ccccc2)N1c1ccccc1
3 | 21 | 49 | CCC(C)=C1C(=O)N(c2ccccc2)N(c2ccccc2)C1=O
4 | 18 | 29 | CCCC=C1C(=O)N(c2ccccc2)N(c2ccccc2)C1=O
5 | 31 | 73 | CC(=C1C(=O)N(c2ccccc2)N(c2ccccc2)C1=O)c1ccccc1
6 | 79 | – | O=C(CBr)NCCC1C(=O)N(c2ccccc2)N(c2ccccc2)C1=O

Further lines, the compound ahead of its results:

Row | Structure (SMILES) | Control [1] [%] | Control [2] [%]
7 | CC(C)=C1C(=O)N(c2ccccc2)N(c2ccccc2)C1=O | 63 | 89
8 | O=C1C(=C/C=C/c2ccccc2)C(=O)N(c2ccccc2)N1c1ccccc1 | 96 | –
9 | CC(C)(C#N)C1C(=O)N(c2ccccc2)N(c2ccccc2)C1=O | 5 | 23
10 | O=C(NCCC1C(=O)N(c2ccccc2)N(c2ccccc2)C1=O)Oc1ccccc1 | 42 | 78
